We go through six molecules from patent US4871722A, “Synergistic veterinary composition and/or fodder premix and process for preparing same” (priority 1987, dated 1989).

For data set [1] the following is noted: in vivo; cited from earlier work.
For another data set, the system named is Staphylococcus aureus. Briefly: MIC by broth-dilution method (bactericidal effect), strain A. It is filed as cell-based. Particulars: read-out: MIC value. As for the experimental part:
(§1) The minimum inhibiting concentration (MIC) values of the above compounds and their two- or three-component combinations were determined in phenol-red - glucose broth (product of the Difco Co.) by using the broth-dilution method on the following bacterium strains isolated from chickens: […]

Another data set relates to Escherichia coli 1. Description: MIC by broth-dilution method (bactericidal effect), strain B. Type of data set: cell-based. As for the experimental part: as §1
Another data set has as its system Escherichia coli 2. Description: MIC by broth-dilution method (bactericidal effect), strain C. Type of data set: cell-based. As for the experimental part: as §1
Another data set concerns Salmonella typhimurium. Briefly: MIC by broth-dilution method (bactericidal effect), strain D. It is filed as cell-based. Particulars: Salmonella enterica, read-out: MIC value. The method, then: (§2) The minimum inhibiting concentration (MIC) values of the above compounds and their two- or three-component combinations were determined in phenol-red - glucose broth (product of the Difco Co.) by using the broth-dilution method on the following bacterium strains isolated from chickens:
(§3) D: Salmonella typhimurium

A further data set has as its system Pasteurella multocida. Description: MIC by broth-dilution method (bactericidal effect), strain E. It is filed as cell-based. Particulars: read-out: MIC value. As for the experimental part: as §1
A further data set deals with Aspergillus fumigatus. Briefly: MIC by broth-dilution method (bactericidal effect), strain F. Type of data set: cell-based. Particulars: read-out: MIC value. The method, then:
as §1

For data set [2], the system named is bacterium strains isolated from chickens. Description: in vitro bacterial growth inhibition over the bacterium strains tested. It is filed as cell-based. Particulars: single compound. As for the experimental part: as §2, §3
For data set [3] the following is noted: in vivo.
[4] abbreviates: strain A: Staphylococcus aureus, phenol-red - glucose broth, bactericidal effect.
Setting [5] is: strain B: Escherichia coli 1, phenol-red - glucose broth, bactericidal effect, read-out: MIC value.
The mark [6] stands for this setting: strain C: Escherichia coli 2, phenol-red - glucose broth, bactericidal effect, read-out: MIC value.
The mark [7] stands for this setting: strain D: Salmonella typhimurium, phenol-red - glucose broth, bactericidal effect.
[8] abbreviates: strain E: Pasteurella multocida, phenol-red - glucose broth, bactericidal effect.
Setting [9] is: strain F: Aspergillus fumigatus, phenol-red - glucose broth, bactericidal effect.
Where [10] appears, read: Escherichia coli, 1, read-out: MIC value.
The mark [11] stands for this setting: Escherichia coli, 2, read-out: MIC value.

Read-outs that look alike come from different tables or passages of the source.

As to `Nc1ccc(S(=O)(=O)Nc2cnc3ccccc3n2)cc1` [sulfachinoxaline, N-(2-chinoxalinyl)sulfanilamide], the “toxicity; damage of haemopoietic organs and vessel walls” value in data set [1] was “the haemopoietic organs and vessel walls of the animals are significantly injured”.

Broadly, the MIC is the lowest concentration that inhibits growth of the organism. For `COc1cc(Cc2cnc(N)nc2N)cc(OC)c1OC` [Trimetoprim, 2,4-diamino-5-(3,4,5-trimethoxybenzyl)pyrimidine], the MIC is 200 µg/mL with Staphylococcus aureus (setting [4]); 200 µg/mL in the data set on Escherichia coli 1 (setting [5]); 200 µg/mL in the data set with Escherichia coli 2 (setting [6]); 200 µg/mL in the data set on Salmonella typhimurium (setting [7]); 100 µg/mL in the data set on Pasteurella multocida (setting [8]); 200 µg/mL with Aspergillus fumigatus (setting [9]). In addition, in data set [2], the “dose necessary for the in vitro antibacterial effect” value (shortened to “dose necessary”) is “a very high dose”.

Consider `Oc1cccc2cccnc12` [8-hydroxyquinoline], for which the “dose necessary” value in [2] was “a relatively low dose”. In addition, the “required therapeutic blood level in the blood plasma” value in data set [3] is “cannot develop in the blood plasma”.

In the case of `COc1ccc(Cc2cnc(N)nc2N)cc1OC` [Diaveridine, 2,4-diamino-5-(3,4-dimethoxybenzyl)pyrimidine], the MIC came out at 200 µg/mL with Staphylococcus aureus (Staphylococcus aureus); 200 µg/mL in the data set on Escherichia coli 1 (setting [10]); 150 µg/mL in the data set with Escherichia coli 2 (setting [11]); 200 µg/mL in the data set on Salmonella typhimurium (TYPHIMURIUM); 150 µg/mL with Pasteurella multocida (Pasteurella multocida); 200 µg/mL with Aspergillus fumigatus (Aspergillus fumigatus). For the same molecule, in [2], the “dose necessary” value is reported as “a very high dose”.

Take `O=S(=O)(O)O.Oc1cccc2cccnc12` [8-Hydroxyquinoline sulfate, 8-hydroxyquinoline sulfate]: the minimal inhibitory concentration (MIC) worked out at 5 µg/mL in the data set on Staphylococcus aureus (Staphylococcus aureus); 25 µg/mL in the data set with Escherichia coli 1 (setting [10]); 25 µg/mL in the data set on Escherichia coli 2 (setting [11]); 50 µg/mL in the data set with Salmonella typhimurium (TYPHIMURIUM); 1 µg/mL in the data set with Pasteurella multocida (Pasteurella multocida); 25 µg/mL in the data set with Aspergillus fumigatus (Aspergillus fumigatus).

Take `COc1cc(NS(=O)(=O)c2ccc(N)cc2)nc(OC)n1` [Sulfadimethoxine, 2,6-dimethoxy-4-sulfanilamidopyrimidine]: the MIC with Staphylococcus aureus (setting [4]), with Escherichia coli 1 (setting [5]), in the data set with Escherichia coli 2 (setting [6]), in the data set on Salmonella typhimurium (setting [7]), with Pasteurella multocida (setting [8]) and in the data set with Aspergillus fumigatus (setting [9]) was 200 µg/mL each time. In [1], the “toxicity compared with other sulfonamides” value is recorded as “one of the least toxic ones”. Besides, the “toxicity; damage of haemopoietic organs and vessel walls” value in [1] is “no damages of the haemopoietic organs and vessel walls”.
